From patent publication US20250034167A1, “HETEROCYCLIC COMPOUNDS AND METHODS OF USE” (AMGEN INC., priority 2021, published 2025) come the findings set out here.

For assay [1], the system named is Phosphorylation of ERK1/2 in AsPC-1 cells. Put plainly: Phospho-ERK1/2 MSD Assay. In kind it is cell-based. On the procedure: Sixteen hours prior to compound treatment, AsPC-1 cells were seeded in 96-well cell culture plates at a density of 25,000 cells/well and incubated at 37° C., 5% CO2. A compound dose-response titration was diluted in growth media, added to appropriate wells of a cell culture plate, and then incubated at 37° C., 5% CO2 for 2 hours.

In assay [2] the target is His-tagged KRAS G12D protein (Homo sapiens, UniProt P01116, G12D). Briefly: biochemical.
His-tagged KRAS G12D protein, sequence (P01116 1-188 isoform P01116-2 G12D): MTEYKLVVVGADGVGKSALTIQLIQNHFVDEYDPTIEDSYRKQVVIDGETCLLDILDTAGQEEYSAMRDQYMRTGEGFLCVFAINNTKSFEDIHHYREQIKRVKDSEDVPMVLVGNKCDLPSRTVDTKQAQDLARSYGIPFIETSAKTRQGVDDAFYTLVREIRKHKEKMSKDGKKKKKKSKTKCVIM
Description: The plate was incubated for 30 minutes at room temperature. Biotinylated KRPep-2d substrate (Amgen) was diluted to nM in Assay Buffer and 2 μL was added to all wells and incubated for 1 hour at room temperature. Detection Reagent (0.4 nM LANCE Eu-W1024 Anti-6×His (Perkin Elmer AD0401), 5 nM streptavidin-d2 (Cisbio 610SADLA)) was prepared in Assay Buffer, then 4 µL was added to the plate and incubated for 1 hour at room temperature.
Setting [3] is: Homo sapiens, ASPC1, 2 h, read-out: 2 h p-ERK (AsPC-1 cells), IC50, AsPC-1 cells, 2 h compound treatment.
Setting [4] is: read-out: 2 h p-ERK (AsPC-1 cells), IC50, AsPC-1 cells, 2 h compound treatment.

Where two headings read alike, the source gives them in different places.

Regarding `CCc1cccc2cc(O)cc(-c3ncc4c(N5CC6CC(O)C(C6)C5)nc(OC[C@@]56CCCN5C[C@H](F)C6)nc4c3F)c12` (single isomer, unassigned) [Example 29], the IC50 was 0.031 µM in assay [1] (setting [3]) and 0.001 µM in assay [2].
Consider `Oc1cc(Cl)c(C2CC2)c(-c2ncc3c(N4CC5CC(O)C(C5)C4)nc(OC[C@@]45CCCN4C[C@H](F)C5)nc3c2F)c1` (single isomer, unassigned) [Example 30], for which the IC50 amounted to 0.399 µM in assay [1] (setting [3]) and 0.003 µM in assay [2].
With `C#Cc1cccc2cc(O)cc(-c3ncc4c(N5CC6CC(O)C(C6)C5)nc(OC[C@@]56CCCN5C[C@H](F)C6)nc4c3F)c12` (single isomer, unassigned) [Example 31], the half-inhibitory concentration (IC50) in assay [1] (setting [3]) came out at 0.032 µM; in assay [2], 0.002 µM.
For the compound `CCc1c(F)ccc2cc(O)cc(-c3ncc4c(N5CCCC(O)(C(F)F)C5)nc(OC[C@@]56CCCN5C[C@H](F)C6)nc4c3F)c12` (single isomer, unassigned) [Example 39], the IC50 is 0.013 µM in assay [1] (setting [4]) and 0.002 µM in assay [2].
On to `CCc1c(F)ccc2cc(O)cc(-c3ncc4c(N5CCCC(O)(C(F)F)C5)nc(OC[C@@]56CCCN5C[C@H](F)C6)nc4c3F)c12` (single isomer, unassigned) [Example 40], for which the figures for the IC50 in assay [1] (setting [4]) and in assay [2] were 0.571 µM and 0.015 µM, respectively.
Consider `C#Cc1c(F)ccc2cc(O)cc(-c3ncc4c(N5CCCC(O)(C(F)F)C5)nc(OC[C@@]56CCCN5C[C@H](F)C6)nc4c3F)c12` (single isomer, unassigned) [Example 41], for which the IC50 in assay [1] (setting [3]) was found to be 0.025 µM; in assay [2] it was 0.001 µM.
`CCc1c(F)ccc2cc(O)cc(-c3ncc4c(N5CCCC(C#N)CC5)nc(OC[C@@]56CCCN5C[C@H](F)C6)nc4c3F)c12` (single isomer, unassigned) [Example 54]: the IC50 in assay [1] (setting [4]) worked out at 0.116 µM; in assay [2], 0.003 µM.
Take `CCc1c(F)ccc2cc(O)cc(-c3ncc4c(N5CCCCC(C)(O)C5)nc(OC[C@@]56CCCN5C[C@H](F)C6)nc4c3F)c12` (single isomer, unassigned) [Example 136]: the values for the half-maximal inhibitory concentration (IC50) in assay [1] (setting [4]) and in assay [2] were 0.614 µM and 0.01 µM, respectively.
In the same order, the values of `CCc1c(F)ccc2cc(O)cc(-c3ncc4c(N5CCCCC(C)(O)C5)nc(OC[C@@]56CCCN5C[C@H](F)C6)nc4c3F)c12` (single isomer, unassigned) [Example 137] are 0.04 µM and 0.002 µM.
For `CCc1c(F)ccc2cc(O)cc(-c3ncc4c(N5CC6CC(C#N)C(C6)C5)nc(OC[C@@]56CCCN5C[C@H](F)C6)nc4c3F)c12` (single isomer, unassigned) [Example 145], the IC50 in assay [1] (setting [4]) came out at 0.593 µM; in assay [2], 0.008 µM.
In the same order, the values of `CCc1c(F)ccc2cc(O)cc(-c3ncc4c(N5CC6CC(C#N)C(C6)C5)nc(OC[C@@]56CCCN5C[C@H](F)C6)nc4c3F)c12` (single isomer, unassigned) [Example 146] are 0.233 µM and 0.002 µM.
In the same order, the values of `CCc1c(F)ccc2cc(O)cc(-c3ncc4c(N5CC(C)CC(C(N)=O)C5)nc(OC[C@@]56CCCN5C[C@H](F)C6)nc4c3F)c12` (single isomer, unassigned) [Example 163] are 2.73 µM and 0.011 µM.
The like results for `CCc1c(F)ccc2cc(O)cc(-c3ncc4c(N5CC(C)CC(C(N)=O)C5)nc(OC[C@@]56CCCN5C[C@H](F)C6)nc4c3F)c12` (single isomer, unassigned) [Example 164] were, in that order, 1.2 µM and 0.003 µM.
Turning to `CCC1CCCc2cc(O)cc(-c3ncc4c(N5CCC[C@@](C)(O)C5)nc(OC[C@@]56CCCN5C[C@H](F)C6)nc4c3F)c21` (single isomer, unassigned) [Example 173], the 50% inhibitory concentration (IC50) in assay [1] (setting [3]) is 0.022 µM; in assay [2], 0.004 µM.
